Laboratory results as given in ChEMBL document CHEMBL1201862, “PubChem BioAssay data set” (2004).
The source made the active and inactive calls.

Legend:
[1] = DRD fibroblast viability loss – cell-based, non-viral oncogenic, luminescence, dose response (AID 1934); format: functional; settings: Homo sapiens
BJ [2] = assay: BJ-TERT-LT-ST fibroblast viability loss – cell-based, RAS-independent, luminescence, dose response (AID 1935); format: functional; settings: Homo sapiens;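 note: BJ fibroblasts immortalized with TERT plus LT and ST oncogenes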
BJ [3] = assay: BJ-TERT fibroblast viability loss – cell-based, RAS-independent, luminescence, dose response (AID 1933); format: functional; settings: Homo sapiens
BJ [4] = assay: cells; format: functional, cell-based; settings: Homo sapiens
[5] = biological target: T1, Calpain-2 catalytic subunit (Sus scrofa, UniProt P43367); assay: m-calpain protease blockers, concentration series – biochemical, fluorogenic peptide substrate, dose response (AID 1420); format: functional
T1 sequence (P43367 whole entry): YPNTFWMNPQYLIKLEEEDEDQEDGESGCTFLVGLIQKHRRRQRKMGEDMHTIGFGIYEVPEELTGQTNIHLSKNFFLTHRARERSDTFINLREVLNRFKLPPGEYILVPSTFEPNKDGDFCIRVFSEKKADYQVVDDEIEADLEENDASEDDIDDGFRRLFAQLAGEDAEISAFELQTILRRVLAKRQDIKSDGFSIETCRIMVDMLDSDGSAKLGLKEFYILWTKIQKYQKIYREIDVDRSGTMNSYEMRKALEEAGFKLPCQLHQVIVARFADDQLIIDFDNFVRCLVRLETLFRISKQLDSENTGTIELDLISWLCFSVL

[6] = HIV-1 AD8 envelope cell-cell fusion blockers – cherry-pick, dose response (AID 652062); format: functional, cell-based;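 note: luciferase signal from cell-cell fusion driven by HIV-1 clade B AD8 Env; potency is for inhibitors of fusion seen as a drop in luminescence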
[7] = blockers of HIV-1 envelope-mediated cell-cell fusion – cherry-pick, dose response (AID 652057); format: functional, cell-based
[8] = biological target: FAD-linked sulfhydryl oxidase ALR (Homo sapiens, UniProt P55789); assay: ALR-catalysed DTT oxidation blockers – biochemical, H2O2 detection, luminescence, cherry-pick, dose response (AID 493248)
INS1 = assay: INS-1E survival protection against cytokine death – cell-based, luminescence, retest, dose response (AID 449756); format: functional; settings: Rattus norvegicus;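 note: cell death triggered by IL-1 beta plus TNF-alpha plus IFN-gamma mixture; protective hits raise ATP signal compared with cytokine alone wells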
P388/ADR = assay: cells; format: functional; settings: Mus musculus
P388 = assay: cells; format: functional; settings: Mus musculus
SN12K1 = assay: cells; format: functional; settings: Homo sapiens
[9] = Luminescence Cell-Based Dose Response HTS to Identify Activators of Luciferase Translation or Activity in H4 […] Cells. [Related pubchem assays: 1829 (Project Summary), 1814 (Primary HTS)]; format: functional
[10] = Luminescence Cell-Based Dose Confirmation HTS to Identify Activators of 5'UTR Stem-Loop Driven Alpha-Synuclein mRNA Translation in H4 Neuroglioblastoma Cells. [Related pubchem assays: 1829 (Project Summary), 1814 (Primary HTS)]; format: functional
H4 = assay: Luminescence Cell-Based Dose Response HTS to Identify Activators of 5'UTR Stem-Loop Driven Prion Protein mRNA Translation in H4 Neuroglioblastoma Cells. [Related pubchem assays: 1829 (Project Summary), 1814 (Primary HTS)]; format: functional; settings: Homo sapiens
Streptococcus = assay: GAS UMAA2166 growth inhibition – luminescence, BacTiterGlo, counter-screen for streptokinase expression inhibitor project, dose response (AID 1915); format: functional, organism-based;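 note: potency for reduction of bacterial viability or growth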
[11] = system: Streptococcus sp. 'group A'; assay: Streptococcus pyogenes SK(-)GAS viability under kanamycin – luminescence, BacTiterGlo, confirmation, counter-screen for streptokinase expression inhibitor project, dose response (AID 1900); format: functional, organism-based
[12] = NIH-3T3 fibroblast cytotoxicity, dose response, cytotoxicity control, cell-based, fluorescence, Alamar Blue, secondary assay (AID 2327); format: functional;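 note: NIH-3T3 mouse fibroblasts cultured with fluconazole at 8 µg/mL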
Protein RecA = biological target: T2, Protein RecA (Mycobacterium tuberculosis, UniProt P9WHJ3); assay: Fluorescence Cell-Free Homogeneous Dose Retest to Identify Inhibitors of RecA-Intein Splicing Activity. [Related pubchem assays (depositor defined):AID2097, AID2223, AID489010, AID492950]; format: functional
T2 sequence (P9WHJ3 whole entry): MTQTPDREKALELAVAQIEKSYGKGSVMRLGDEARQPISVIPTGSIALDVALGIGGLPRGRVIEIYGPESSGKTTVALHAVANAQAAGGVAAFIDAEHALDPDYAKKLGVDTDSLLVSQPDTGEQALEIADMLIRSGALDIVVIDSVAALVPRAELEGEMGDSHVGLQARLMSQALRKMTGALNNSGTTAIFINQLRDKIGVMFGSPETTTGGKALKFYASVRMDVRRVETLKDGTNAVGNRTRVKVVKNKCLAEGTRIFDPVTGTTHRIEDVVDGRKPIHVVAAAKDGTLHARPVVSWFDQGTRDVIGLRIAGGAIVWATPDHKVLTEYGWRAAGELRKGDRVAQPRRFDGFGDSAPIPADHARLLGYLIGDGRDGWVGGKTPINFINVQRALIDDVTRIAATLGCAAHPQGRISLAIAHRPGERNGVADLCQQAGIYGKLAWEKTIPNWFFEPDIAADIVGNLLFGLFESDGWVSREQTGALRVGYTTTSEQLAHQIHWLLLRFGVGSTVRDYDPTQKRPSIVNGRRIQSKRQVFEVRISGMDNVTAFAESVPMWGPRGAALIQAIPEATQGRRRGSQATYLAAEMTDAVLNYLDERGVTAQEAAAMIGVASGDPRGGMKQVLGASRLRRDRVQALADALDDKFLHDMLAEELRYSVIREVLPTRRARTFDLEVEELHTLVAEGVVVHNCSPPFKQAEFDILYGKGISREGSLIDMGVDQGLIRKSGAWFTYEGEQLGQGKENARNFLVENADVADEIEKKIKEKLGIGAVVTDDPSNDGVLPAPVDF

[13] = biological target: T3, Replicative DNA helicase DnaB (Mycobacterium tuberculosis, UniProt P9WMR3); assay: DnaB intein splicing inhibitors, dose response, biochemical, cell-free fluorescence (AID 449749); format: functional
T3 sequence (P9WMR3 whole entry): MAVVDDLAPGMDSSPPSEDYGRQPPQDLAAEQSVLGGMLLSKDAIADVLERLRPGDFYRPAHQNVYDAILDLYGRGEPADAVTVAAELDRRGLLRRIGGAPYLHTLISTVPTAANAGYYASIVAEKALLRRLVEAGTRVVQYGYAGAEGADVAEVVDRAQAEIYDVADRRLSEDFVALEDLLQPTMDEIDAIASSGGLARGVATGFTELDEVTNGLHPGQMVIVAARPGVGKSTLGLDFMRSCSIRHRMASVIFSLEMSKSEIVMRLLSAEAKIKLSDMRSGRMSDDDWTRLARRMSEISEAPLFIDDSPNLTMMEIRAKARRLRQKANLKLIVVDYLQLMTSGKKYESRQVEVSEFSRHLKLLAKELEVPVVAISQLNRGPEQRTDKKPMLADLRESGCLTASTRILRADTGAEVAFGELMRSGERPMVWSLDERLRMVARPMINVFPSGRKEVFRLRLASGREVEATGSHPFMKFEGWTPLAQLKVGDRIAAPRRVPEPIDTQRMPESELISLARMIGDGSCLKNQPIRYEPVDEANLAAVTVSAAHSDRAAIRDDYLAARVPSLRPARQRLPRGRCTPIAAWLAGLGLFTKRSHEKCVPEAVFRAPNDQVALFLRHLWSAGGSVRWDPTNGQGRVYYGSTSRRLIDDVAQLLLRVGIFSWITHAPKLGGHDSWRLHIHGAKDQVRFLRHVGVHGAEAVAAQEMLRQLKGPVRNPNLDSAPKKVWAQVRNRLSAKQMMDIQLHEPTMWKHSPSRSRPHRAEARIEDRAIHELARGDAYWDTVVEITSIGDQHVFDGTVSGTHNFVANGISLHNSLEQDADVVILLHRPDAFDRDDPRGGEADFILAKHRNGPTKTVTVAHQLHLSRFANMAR

Sequence of FAD-linked sulfhydryl oxidase ALR (P55789 whole entry): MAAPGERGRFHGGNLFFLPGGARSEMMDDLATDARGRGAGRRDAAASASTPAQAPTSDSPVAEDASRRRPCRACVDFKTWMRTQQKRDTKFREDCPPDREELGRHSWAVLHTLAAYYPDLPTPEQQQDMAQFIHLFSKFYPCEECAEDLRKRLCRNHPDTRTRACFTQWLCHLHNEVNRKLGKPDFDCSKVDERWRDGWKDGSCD

O=C(Nc1ccc(Oc2ccccc2)nc1)C1CCCCN1Cc1ccco1 (stereo not drawn)
EC50 [1]: 17.3 µM (inconclusive)
EC50 (BJ [2]): 5.04 µM (inconclusive)
EC50 (BJ [3]): 8.7 µM (inconclusive)
EC50 (BJ [4]): 35.3 µM (active)

CCOC(=O)c1sc(SCC(=O)Nc2ccc(N(C)C)cc2)nc1N
IC50 [5]: 30.7 µM (not active)

Cc1cccc(OCCC(=O)Nc2ccc(C)c(S(=O)(=O)N3CCCCC3)c2)c1
IC50 [5]: 5.33 µM (not active)

O=C(Nc1ccccc1N1CCCCC1)c1ccc(-c2ccc(Cl)cc2)o1
EC50 [1]: 2.91 µM (active)
EC50 (BJ [2]): 46.9 µM (inconclusive)
EC50 (BJ [3]): 3.11 µM (inconclusive)
EC50 (BJ [4]): 40.9 µM (inconclusive)

Cc1noc(C)c1COC(=O)CNC(=O)c1cccc(F)c1
IC50 [5]: > 50 µM (not active)

CC(C)(C)c1ccc(C(=O)NC(=S)Nc2ccc(N3CCOCC3)cc2)cc1
EC50 [1]: > 150 µM (not active)
EC50 (BJ [2]): > 150 µM (not active)
EC50 (BJ [3]): 18.2 µM (active)
EC50 (BJ [4]): 148 µM (inconclusive)

CC1=Nc2cc(C(=O)NCCCOC(C)C)ccc2Sc2ccccc21
EC50 [1]: 18.6 µM (active)
EC50 (BJ [2]): > 150 µM (inconclusive)
EC50 (BJ [3]): 15.4 µM (active)
EC50 (BJ [4]): 57.5 µM (active)

C[C@H](CO)N1C[C@H](C)[C@H](CN(C)S(=O)(=O)c2ccc(F)cc2)Oc2ccc(NS(=O)(=O)c3ccccc3)cc2CC1=O
AC50 [6]: 28.2 µM (active)
AC50 [7]: 16.8 µM (active)

C[C@@H]1CN([C@@H](C)CO)C(=O)c2cccc(NC(=O)C3CCCCC3)c2O[C@H]1CN(C)CC1CCCCC1
AC50 [6]: 67.1 µM (active)
AC50 [7]: 3.12 µM (active)

Cc1ccc(CNc2nc(Cl)c(C#N)s2)cc1
IC50 [5]: 4.33 µM (not active)

COc1cccc(CNc2ccc([N+](=O)[O-])c(NCC(=O)O)n2)c1
IC50 [5]: 5.38 µM (active)

C[C@H](CO)N1C[C@H](C)[C@H](CN(C)S(=O)(=O)c2cccs2)Oc2ccc(NC(=O)C3CCCCC3)cc2CC1=O
AC50 [6]: 5.23 µM (active)
AC50 [7]: 0.436 µM (active)

CCCc1cc(-c2nnc(S)n2CC(C)C)cs1
IC50 [5]: > 50 µM (not active)

CCC(CC)c1nnc(NC(=O)CC(C)c2ccccc2)s1 (stereo not drawn)
EC50 [1]: > 150 µM (not active)
EC50 (BJ [2]): > 75 µM (inconclusive)
EC50 (BJ [3]): > 150 µM (not active)
EC50 (BJ [4]): > 150 µM (not active)

CC(=O)Nc1ccc(C2=NN(C)/C(=N/Cc3ccccc3)SC2)cc1
AC50 [8]: 3.9 µM (active)
IC50 [5]: 8.93 µM (not active)

CSc1ncccc1C(=O)OCC(=O)Nc1ccc2c(c1)OCO2
IC50 [5]: < 0.4 µM (not active)

COc1ccc2cc1Oc1ccc(cc1)C[C@H]1c3cc(c(OC)cc3CCN1C)Oc1c(O)c(OC)cc3c1[C@H](C2)N(C)CC3 [FANGCHINOLINE]
AC50 (INS1): 5.84 µM (active)
GI50 (P388/ADR): 2.58 µM (inactive)
GI50 (P388): 2 µM (inactive)
GI50 (SN12K1): 18.3 µM (inactive)

CCCCCC(=O)Nc1ccc(N2CCN(CC)CC2)c(Cl)c1
IC50 [5]: 18.8 µM (not active)
EC50 [9]: 5.11 µM (active)
EC50 [10]: 15.5 µM (active)
EC50 (H4): 5.08 µM (active)

CCCCCCCCCCCC1=C(O)C(=O)C=C(O)C1=O [EMBELIN]
EC50 (Streptococcus): 3.32 µM (active)
EC50 [11]: 1.58 µM (active)
GI50 (P388/ADR): 9.66 µM (inactive)
EC50 [12]: 5.02 µM (inconclusive)
GI50 (P388): 1.78 µM (inactive)
GI50 (SN12K1): 3.74 µM (inactive)

CCn1c(COc2ccc(Cl)cc2)nnc1SC1CCc2ccccc2C1=O (stereo not drawn)
IC50 [5]: 7.24 µM (not active)
EC50 (Protein RecA): 25.4 µM (active)
AC50 [13]: 9.31 µM (active)

CCOc1ccc(OCc2ccc(C(=O)N3CCCC(C)C3)cc2)cc1 (stereo not drawn)
IC50 [5]: 10.5 µM (active)

O=C(NCC(=O)N(c1ccc(F)cc1)C(C(=O)NC1CCCC1)c1cccnc1)c1cccs1 (stereo not drawn)
IC50 [5]: < 0.4 µM (not active)

O=C(NC(c1ccccc1)C(O)C(=O)OCc1ccc2c(c1)C(=O)c1ccccc1C2=O)c1ccccc1 (stereo not drawn)
GI50 (P388/ADR): 33.8 µM (inactive)
GI50 (P388): 90.2 µM (inactive)
GI50 (SN12K1): 1.84 µM (inactive)

C[C@H](C(=O)N(C)C[C@@H]1OCc2ccccc2-c2ccccc2C(=O)N([C@@H](C)CO)C[C@@H]1C)c1ccccc1
AC50 [6]: < 0.26 µM (active)
AC50 [7]: < 0.26 µM (active)

Cc1ccc(NCC(=O)N/N=C/c2c[nH]c3ccccc23)cc1
IC50 [5]: 16.1 µM (not active)

Cc1c(N=NN(C)C)cc[n+]([O-])c1C
GI50 (P388/ADR): > 100 µM (inactive)
GI50 (P388): > 100 µM (inactive)
GI50 (SN12K1): > 100 µM (inactive)
